# From patent US20200297820A1, “STIMULATION OF HUMAN MEIBOMIAN GLAND FUNCTION” (The Schepens Eye Research Institute, Inc., priority 2013, published 2020)
# Experiments:
# [1] = tested on: immortalized human meibomian gland epithelial cells; assay: LipidTOX green neutral lipid staining (lipid accumulation); format: cell-based; details: for lipid accumulation: 10^−8 M
# Experimental: (§1) As an example of these experiments, immortalized human meibomian gland epithelial cells were cultured in the presence or absence of 10% fetal bovine serum. Cells were treated with an ethanol vehicle or azithromycin (10 μg/ml; Santa Cruz Biotechnology) for varying time periods. Cellular morphological appearance was recorded, cells were counted with a hemocytometer, and lipid accumulation was assessed by staining the cells with LipidTOX green neutral lipid stain (Invitrogen, Grand Island, N.Y.), according to reported methods. Staining fluorescent intensities were quantified by using ImageJ (http://rsbweb.nih.gov/ij/index.html). Statistical analyses were performed with Student's t-test (two-tailed, unpaired).
# (§2) Immortalized human meibomian gland epithelial cells (IHMGECs; passages 20-22) were cultured in the presence or absence of 10% fetal bovine serum. Cells were treated with the ethanol vehicle or azithromycin (10 μg/mL) for varying periods. Cellular morphological appearance was recorded, cells were counted with a hemocytometer, and lipid accumulation was assessed by staining cells with LipidTOX green neutral lipid stain (Invitrogen Corp). Staining fluorescent intensities were quantified using ImageJ software (http://rsbweb.nih.gov/ij/index.html). Statistical analyses were performed with t test (2-tailed, unpaired).
# Cell numbers were enumerated with a hemocytometer. Cellular lipid and lysosome accumulation were examined by staining cells with: Filipin III (a fluorometric probe for identifying unesterified cholesterol), LipidTOX green neutral lipid stain, and LysoTracker® Red DND-99 (a fluorescent technique designed for labeling acidic organelles such as lysosomes). Lysosomal lamellar bodies were identified by transmission electron microscopy. In brief, after culture and treatment on 24 mm polycarbonate membrane transwell inserts (0.4 μm pore size), cells were fixed in a solution of 2% formaldehyde+2.5% glutaraldehyde, in 0.08 M sodium cacodylate buffer, pH 7.4, post-fixed with 2% osmium tetroxide in 0.1 M sodium cacodylate buffer, and stained en bloc with 2% aqueousuranyl acetate. […] Cross sections (1 μM) were stained with 1% toluidine blue in 1% sodium tetraborate solution. Ultra-thin sections (60-90 nm) were imaged with a transmission electron microscope interfaced with a digital CCD camera. For biochemical assessments, cellular lipids were extracted with chloroform and methanol from samples with the same amount of protein. Lipids were then evaluated with high-performance thin-layer chromatography. With regard to the staining results, three Filipin, five LipidTox and four LysoTracker studies were conducted, and each experiment was performed in duplicate. Four random pictures were taken of each group, and four random areas were selected for the measurement of fluorescent intensities. The HPTLC experiments were performed in duplicate more than three times. Image data were quantified with ImageJ (http://rsbweb.nib.gov/ij/index.html). Electron microscopic analyses were performed in triplicate.
# The experiment included green neutral lipid staining. Immortalized human meibomian gland epithelial cells were cultured in slides treated to facilitate cell growth in FBS-containing medium in the presence or absence of IGF-1, anti-IGF-1R, and/or GH. Media were replaced every 2 to 3 days for a total of 6 days, at which time cells were washed and fixed in 4% paraformaldehyde for 30 minutes. After additional washes, cells were stained with green neutral lipid stain in a humid chamber for 30 minutes. Coverslips were mounted on slides with an antifade reagent that contains 4′,6-diamidino-2-phenylindole nuclear stain and permitted to dry overnight before imaging with a microscope. Fluorescence intensity was quantified using image-processing software.
# [2] = tested on: human meibomian gland epithelial cells; assay: Immunoblot of signaling pathways (Akt, FoxO1, ERK, JAK2/STAT5); format: cell-based
# Experimental: The disclosure turns now to sodium dodecyl sulfate-polyacrylamide gel, electrophoresis, and immunoblots. Cells were directly lysed in Laemmli buffer supplemented with 1% protease inhibitor cocktail (Sigma-Aldrich) and 5% β-mercaptoethanol (Sigma-Aldrich). Lysates were heated at 95° C. for 10 minutes, separated by sodium dodecyl sulfate-polyacrylamide gel electrophoresis on 10% Tris-glycine precast gels, and transferred to polyvinylidene difluoride membranes. Rabbit or mouse antibodies used were specific for phosphorylated Akt (p-Akt), pan-Akt, p-FoxO1, FoxO1, p-JAK2, JAK2, and β-actin; for p-ERK, ERK-2, STAT5, and the precursor form of SREBP-1; and for p-STAT5. Membranes were blocked with 5% bovine serum albumin in Tris-buffered saline containing 0.01% polysorbate 20. All primary antibodies were diluted to 1:1000 in blocking buffer except for p-Akt (1:4000), p-ERK (1:2000), ERK-2 (1:4000), SREBP-1 (1:200), and β-actin (1:10 000). Horseradish peroxidase-conjugated secondary antibodies were goat anti-rabbit IgG and Fc-specific goat anti-mouse IgG diluted to 1:5000. Proteins were visualized with enhanced chemiluminescent substrate or with ultrasensitive chemiluminescent substrate. Densitometry was performed with image-processing software.
# To determine whether IGF-1 promotes the phosphorylation of Akt in human meibomian gland epithelial cells, cells were cultured under proliferating or differentiating conditions and then exposed to IGF-1 for 15 minutes.
# FIGS. 9a, 9b, and 9c illustrate the effects of insulin-like growth factor 1 (IGF-1) and growth hormone (GH) on signaling pathways in human meibomian gland epithelial cells. Cells were cultured in keratinocyte serum-free medium containing epidermal growth factor (EGF) and bovine pituitary extract (BPE) for 2 days and then keratinocyte serum-free medium alone overnight or were cultured in 10% fetal bovine serum (FBS) medium for 5 to 7 days and in 1% FBS medium overnight. Cells were then incubated with vehicle or a 10 μM concentration of LY294002 for 2 hours, followed by IGF-1 or GH treatment for 15 minutes. Cell lysates were evaluated on immunoblotting. […] These experiments were repeated at least 3 times with similar results.
# To assess whether GH activates Akt, FoxO1, ERK-2, or its classic (i.e., JAK2 and STAT5) signaling pathways in human meibomian gland epithelial cells, cells were cultured in proliferating or differentiating media, and were exposed to a 10 nM concentration of GH for 15 minutes, and processed for immunoblot analyses. […]
# [3] = tested on: immortalized human meibomian gland cells; assay: 13-cis RA-induced late apoptosis/necrosis; format: cell-based
# [4] = tested on: immortalized human meibomian gland epithelial cells; assay: Cell proliferation, cells counted with a hemocytometer; format: cell-based; details: insulin
# Experimental: as §1, §2
# Regarding cell proliferation assay, the human meibomian gland epithelial cells and LNCaP cells were cultured in 12-well plates in designated media and then exposed to IGF-1 or GH for defined periods. At experimental termination, cells were trypsinized and counted with a hemocytometer.
# FIGS. 10a, 10b, and 10c illustrate the influence of IGF-1 on the proliferation of human meibomian gland epithelial cells. Cells were cultured (100,000 cells/well in 12-well plates, 3 wells per group) in basal, proliferating, and/or differentiating media and treated with IGF-I for 2 to 6 days. […] P values are for post hoc comparison compared with the control value. […] ANOVA indicates analysis of variance; EGF-BPE, epidermal growth factor-bovine pituitary extract; KSFM, keratinocyte serum-free medium. All comparisons are with control value. Whiskers mark SEM. aP<0.05 compared with the control value, post hoc test.
# [5] = one trial; cited from earlier work
molecule,measurement,setting,value
C[C@]12CCC(=O)C[C@@H]1CC[C@@H]1[C@@H]2CC[C@]2(C)[C@@H](O)CC[C@@H]12 [Dihydrotestosterone],lipid accumulation,[1],marked lipid accumulation
same,phosphorylation of extracellular-signal-regulated kinases (ERKs),[2],increase the phosphorylation
CC(=O)[C@H]1CC[C@H]2[C@@H]3CCC4=CC(=O)CC[C@]4(C)[C@H]3CC[C@]12C [progesterone],lipid accumulation,[1],marked lipid accumulation
CC1=C(/C=C/C(C)=C/C=C/C(C)=C\C(=O)O)C(C)(C)CCC1 [13-cis RA],induction of late apoptosis/necrosis,[3],induced late apoptosis/necrosis
"Insulin: insulin, an IGF-1 analogue",accumulation of neutral lipids,[1]; insulin,promotes meibomian gland epithelial cell accumulation of neutral lipids
same,activation of AKT signaling pathway,[2]; cells in serum-containing medium 5-7 days before treatment,dose-dependent manner
same,cell proliferation,[4],promotes meibomian gland epithelial cell proliferation
"figitumumab: human IgG2 monoclonal antibody that prevents the binding of IGF-1 to its receptor (antibody, chains of the INN, looked up) heavy: EVQLLESGGGLVQPGGSLRLSCTASGFTFSSYAMNWVRQAPGKGLEWVSAISGSGGTTFYADSVKGRFTISRDNSRTTLYLQMNSLRAEDTAVYYCAKDLGWSDSYYYYYGMDVWGQGTTVTVSSASTKGPSVFPLAPCSRSTSESTAALGCLVKDYFPEPVTVSWNSGALTSGVHTFPAVLQSSGLYSLSSVVTVPSSNFGTQTYTCNVDHKPSNTKVDKTVERKCCVECPPCPAPPVAGPSVFLFPPKPKDTLMISRTPEVTCVVVDVSHEDPEVQFNWYVDGVEVHNAKTKPREEQFNSTFRVVSVLTVVHQDWLNGKEYKCKVSNKGLPAPIEKTISKTKGQPREPQVYTLPPSREEMTKNQVSLTCLVKGFYPSDIAVEWESNGQPENNYKTTPPMLDSDGSFFLYSKLTVDKSRWQQGNVFSCSVMHEALHNHYTQKSLSLSPG light: DIQMTQFPSSLSASVGDRVTITCRASQGIRNDLGWYQQKPGKAPKRLIYAASRLHRGVPSRFSGSGSGTEFTLTISSLQPEDFATYYCLQHNSYPCSFGQGTKLEIKRTVAAPSVFIFPPSDEQLKSGTASVVCLLNNFYPREAKVQWKVDNALQSGNSQESVTEQDSKDSTYSLSSTLTLSKADYEKHKVYACEVTHQGLSSPVTKSFNRGEC",most common adverse effect,[5],DED
